Assay in all cases: NCI-60 cell line screen, 48 h
The test system of assay [1] is SK-MEL-5 melanoma.
Assay [2] deals with HT29 colon.
The subject of assay [3] is NCI-H23 lung.
In assay [4] the test system is SK-OV-3 ovarian.
Assay [5] has as its system SF-295 CNS.
Assay [6] concerns K-562 leukemia.
Assay [7] has as its system MOLT-4 leukemia.
For assay [8], the system named is NCI/ADR-RES ovarian.
The test system of assay [9] is PC-3 prostate.
The subject of assay [10] is BT-549 breast.

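1) Cells in 96-well plates. 2) Compound, 48 h, 5 concentrations. 3) Linear interpolation between surrounding doses. 4) Unreached endpoint = highest concentration. GI50 is the concentration that inhibits growth by half. TGI denotes the concentration required for complete inhibition of growth.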

Take `COc1cc2c(oc(=O)c3c4oc([Si](C)(C)C)cc4cc(OC)c23)c2cccc(O)c12`: the TGI in assay [1], in assay [2], in [3], in assay [4], in [5] and in assay [6] was > 100 µM throughout. In addition, in assay [7], the TGI was > 100 µM.

With `O=C(CCc1nnc2s/c(=C\c3ccc(Cl)cc3Cl)c(=O)n12)Nc1cc(Cl)c(Cl)cc1Cl`, the GI50 in assay [1], in [2], in assay [3], in assay [4], in [5] and in [6] was > 100 µM in each case. Also, the GI50 in assay [7] was > 100 µM. Also, the TGI in assay [1], in [2], in assay [3], in assay [4], in [5] and in assay [6] was > 100 µM throughout. The TGI in [7] is > 100 µM.

On to `CC(C)Oc1c(O)c2c3c(oc(=O)n3C=CC2c2ccccc2F)c1OC(C)C` (centres undefined), for which the TGI is > 100 µM in [8]; 34.2 µM in assay [1]; 54.1 µM in [2]; > 100 µM in assay [3]; > 100 µM in assay [4]; 78.1 µM in [5]. Besides, the TGI in assay [6] was > 100 µM; in assay [9] it was 40.1 µM; in assay [7], 59.3 µM.

With `CC(C)(C)C(=O)Cc1cc2c(cc1C(=O)O)S(=O)(=O)NC(C(C)(C)C)=C2`, the TGI in assay [2], in assay [3], in assay [4], in [5], in assay [6] and in assay [7] was > 100 µM each time.

Take `CCOC(=O)C1(C/C=C\CBr)CCCCCCC1=O` (centres undefined): the TGI in assay [8], in assay [1], in assay [2], in [3], in assay [4] and in [5] was > 100 µM throughout. Besides, the TGI in assay [10], in assay [9] and in assay [7] was > 100 µM in each case.

Consider `C[Si](C)(C)C1=C2C(=O)c3ccccc3C(=O)C2=C([Si](C)(C)C)[C@@H]2CCCC[C@H]12`, for which the TGI in [1], in assay [3], in assay [4], in assay [5], in assay [6] and in assay [10] was > 100 µM in each case. Besides, the TGI in [9] and in assay [7] was > 100 µM each time.

Consider `Cc1[nH]c(=O)nc2c1C(=O)N(C(C)C)C(NC(C)C)S2` (centres undefined), for which the TGI in assay [8], in assay [1], in assay [2], in assay [3], in assay [4] and in assay [5] was > 100 µM in each case. The TGI in assay [6], in assay [9] and in assay [7] was > 100 µM in each case.

Take `N#C/C(=C/NC(=S)Nc1ccc(S(N)(=O)=O)cc1)C(N)=O`: the TGI in [1], in assay [2], in assay [3], in assay [4], in [5] and in assay [10] was > 100 µM in each case. Also, the TGI in [9] and in [7] was > 100 µM throughout.

Turning to `CC(C)OP(=O)(OC(C)C)c1ncn(-c2ccc([N+](=O)[O-])cc2)n1`, the TGI in assay [1], in assay [2], in assay [3], in [4], in assay [5] and in [6] was > 100 µM each time. Besides, in assay [7], the TGI was > 100 µM.

With `COCN1C(=O)[C@@H]2C[C@@H](OC/C=C/CBr)CN2C(=O)c2ccccc21`, the TGI in assay [8] is > 100 µM; in [1] it was 34.8 µM; in assay [2] it was 82.1 µM; in assay [3], 81.5 µM; in assay [4] it was 88.5 µM; in [5], 46.5 µM. Also, the TGI in assay [10] is > 100 µM; in [9] it was 51.8 µM; in assay [7], > 100 µM.

Regarding `CC(=S)NC1C(Oc2ccc3c(C)cc(=O)oc3c2)OC(CO)C(O)C1O` (centres undefined), the TGI in [8], in [1], in assay [2], in [4], in assay [5] and in [6] was > 100 µM each time. The TGI in [10], in assay [9] and in assay [7] was > 100 µM throughout.

On to `CC(C)(Oc1ccc(C2C[C@H]2Cl)cc1)C(=O)O` (some centres undefined), for which the TGI in assay [1], in assay [4], in assay [5], in assay [6], in assay [10] and in [9] was > 100 µM in each case. In assay [7], the TGI was > 100 µM.

For `CC(C)(C)C(=O)C(C#N)C(=O)C(C)(C)C`, the TGI in [8], in assay [1], in assay [2], in [3], in [4] and in assay [5] was > 100 µM each time. In addition, the TGI in [6], in assay [9] and in assay [7] was > 100 µM throughout.

Regarding `CCCCCCCCCCCCCCCCCc1nc(C#N)c(N)o1`, the TGI in assay [1], in assay [2], in [4], in [6], in assay [9] and in [7] was > 100 µM each time.

Regarding `N#Cc1ccc(/C=C2\Cc3ccccc3C2=O)cc1`, the TGI in assay [1], in [2], in assay [3], in [4], in [5] and in assay [6] was > 100 µM in each case. Moreover, the TGI in [10], in [9] and in [7] was > 100 µM throughout.

In the case of `O=S(=O)(CC#CCS(=O)(=O)c1ccccc1)c1ccccc1`, the TGI in assay [8] was > 83 µM; in assay [1], 10.4 µM; in assay [2] it was 27.7 µM; in assay [3] it was 12.2 µM; in assay [4], 27.5 µM; in assay [5] it was 43.6 µM. The TGI in assay [10] was 11.8 µM; in assay [9], 22.3 µM; in assay [7] it was > 42.2 µM.

Take `O=C(Cl)c1cc([N+](=O)[O-])cc([N+](=O)[O-])c1`: the TGI in [1], in assay [2], in assay [3], in [4], in assay [5] and in assay [6] was > 100 µM throughout. In addition, the TGI in [7] is > 100 µM.

Consider `CC1(C)CC(=O)C2=C(C1)OC1=C(CC(C)(C)CC1=O)C2c1ccccc1Cl` (centres undefined), for which the TGI in assay [8], in assay [1], in [2], in assay [3], in assay [4] and in [5] was > 100 µM throughout. Besides, the TGI in assay [6], in assay [9] and in assay [7] was > 100 µM in each case.

For `COc1cccc2c(NNc3ccc(Cl)cc3)c3ccc([N+](=O)[O-])cc3nc12`, the TGI turned out to be 80.4 µM in assay [1]; 34.8 µM in assay [2]; 33.4 µM in assay [3]; 32.5 µM in assay [4]; 36.1 µM in assay [5]; 97.2 µM in assay [6]. In addition, the TGI in assay [10] came out at 29.8 µM; in [9], 26.1 µM; in assay [7] it was 11.5 µM.

Take `O=c1n(CCO)nc2n1CCCN2`: the TGI in assay [1], in [2], in assay [3], in [4], in assay [5] and in assay [6] was > 100 µM in each case. The TGI in assay [10], in assay [9] and in assay [7] was > 100 µM in each case.

Regarding `COC(=O)c1ccc2[nH]c3c(c2c1)CC(=O)Nc1ccccc1-3`, the TGI in [8] is > 100 µM; in [1], > 100 µM; in assay [2], > 100 µM; in assay [4], > 100 µM; in assay [5], > 100 µM; in assay [6] it was 97.7 µM. In addition, the TGI in assay [10] and in assay [9] was > 100 µM each time.

Take `COc1cccc(C(=O)C(O)c2cccc(OC)c2OC)c1OC` (centres undefined): the TGI in assay [8], in assay [1], in assay [2], in assay [3], in assay [4] and in [5] was > 100 µM in each case. For the same compound, the TGI in [10], in [9] and in [7] was > 100 µM in each case.

As for `Cc1cccc2ns[s+]c12`, the TGI in [1] is > 100 µM; in assay [2] it was > 100 µM; in assay [3] it was > 100 µM; in assay [4], > 100 µM; in assay [5], > 100 µM; in [6], 81.4 µM. The TGI in assay [7] is > 100 µM.

In the case of `COc1ccc2c(c1)CCC1C2CCC2(C)C1CC[C@@]2(O)CNC(=O)/C=C/c1ccc(O)c(O)c1` (some centres undefined), the GI50 in [8] was 2.12 µM; in assay [1], 3.41 µM; in assay [2], 1.93 µM; in assay [3], 2.96 µM; in assay [4], 14.8 µM; in [5], 3.54 µM. Also, the results for the GI50 in assay [10], in [9] and in [7] were 3.95 µM, 1.92 µM and 0.382 µM, respectively. Further, the TGI in [8] is 5.83 µM; in assay [1], 9.6 µM; in assay [2], 4.78 µM; in assay [3] it was 9.14 µM; in [4], > 100 µM; in assay [5] it was > 100 µM. In addition, the TGI is > 100 µM in assay [10], 10.2 µM in assay [9] and 2.28 µM in [7].

`NC(N)=NS(=O)(=O)c1ccc(NC(=O)c2c3ccccc3nc3ccccc23)cc1`: the TGI in [8], in assay [1], in assay [2], in assay [3], in assay [4] and in assay [5] was > 100 µM in each case. Besides, the TGI in assay [10], in [9] and in [7] was > 100 µM throughout.

Consider `C[N+]12C=CC=C1C(N1CCCC1)c1sc(-c3ccc(Cl)cc3)cc12` (centres undefined), for which the TGI in [8] was > 100 µM; in [1], 31.8 µM; in assay [2], 34.3 µM; in [4], 32.8 µM; in assay [5], 43.7 µM; in assay [10] it was 22 µM. For the same compound, the TGI was 29.9 µM in assay [9] and 53.5 µM in [7].

As to `CCCCCCc1cc2cc(C(=O)Nc3cccc(C(F)(F)F)c3)c(=N)oc2cc1O`, the TGI is 7.42 µM in assay [8]; 2.45 µM in [1]; > 100 µM in assay [2]; 1.76 µM in assay [3]; 10.1 µM in [4]; 14.1 µM in assay [5]. In addition, the TGI was 6.1 µM in assay [10], 15.1 µM in [9] and 4.19 µM in assay [7].

On to `CC1=CC(=O)C[C@]2(C)[C@@H](O)CC(C(C)CO)C[C@@H]12` (some centres undefined), for which the TGI in assay [8], in [1], in assay [2], in [3], in [4] and in assay [5] was > 100 µM each time. Also, the TGI in assay [10] and in assay [7] was > 100 µM in each case.

Regarding `COc1cc(C=Nc2ccc(Oc3ccc(Cl)cc3)c(Cl)c2)cc(OC)c1OC`, the TGI turned out to be 48.8 µM in assay [8]; 34.9 µM in assay [1]; 44 µM in [2]; 42 µM in [3]; 37.3 µM in assay [5]; 38 µM in [10]. For the same compound, the TGI was 36.2 µM in assay [9] and 76 µM in assay [7].

`O=c1[nH]/c(=C/c2ccc(OCc3ccccc3)cn2)c(=O)[nH]/c1=C/c1cccnc1`: the TGI is 1.33 µM in assay [8]; > 100 µM in [2]; > 100 µM in assay [4]; 1.65 µM in assay [5]; > 100 µM in assay [10]; > 100 µM in assay [9].

For the origin of these results see PubChem BioAssay (NCI).
